Test systems include NCI-H23 lung; U251 CNS; 786-0 renal; MDA-MB-435; EKVX NSCLC; CCRF-CEM leukemia; SF-539 CNS; SNB-75 CNS; UO-31 renal; SK-MEL-5 melanoma.
What all share (test): growth of human tumour cells (NCI), 48 h

Molecules are shown by their SMILES. Values joined by “and” are separate entries in the source; they are usually repeats but may differ in a detail not shown here. Identical values can stand only once.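 In this assay, cells in 96-well plates receive the compound at five concentrations for 48 hours. Endpoints are linearly interpolated between the surrounding concentrations. Abbreviation: GI50, concentration required for 50% inhibition of growth. Definition used: TGI = concentration required for complete inhibition of growth.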

Turning to `CN(C)CCCSc1ccccc1NC1=C(Cl)C(=O)C(Nc2ccccc2SCCCN(C)C)=C(Cl)C1=O`, the GI50 in the assay on NCI-H23 lung was 1.75 µM; in the assay with U251 CNS it was 2.12 µM; with 786-0 renal it was 1.72 µM; in the assay on MDA-MB-435, 2.06 µM; with EKVX NSCLC it was 1.81 µM; with CCRF-CEM leukemia, 0.476 µM. In addition, the GI50 was 1.68 µM in the assay on SF-539 CNS, 11.1 µM with SNB-75 CNS, 1.47 µM in the assay on UO-31 renal and 1.83 µM with SK-MEL-5 melanoma. The TGI worked out at 3.74 µM in the assay with NCI-H23 lung; 3.69 µM in the assay on U251 CNS; 3.17 µM with 786-0 renal; 4.52 µM in the assay with MDA-MB-435; 3.38 µM with EKVX NSCLC; 4.15 µM in the assay with CCRF-CEM leukemia. Besides, the TGI stood at 3.1 µM in the assay with SF-539 CNS, 23.2 µM in the assay with SNB-75 CNS, 2.79 µM with UO-31 renal and 3.55 µM in the assay on SK-MEL-5 melanoma.

As to `COC(=O)c1ccc(/C=C(\c2ccc([N+](=O)[O-])o2)S(=O)(=O)c2ccc(NC(C)=O)cc2)o1`, the TGI with NCI-H23 lung amounted to 28.3 µM; in the assay with U251 CNS, 28.8 µM; in the assay on 786-0 renal it was 14.9 µM; in the assay with MDA-MB-435 it was 12.8 µM; in the assay with EKVX NSCLC it was 26.3 µM; with SF-539 CNS, 15.2 µM. For the same compound, the results for the TGI in the assay with SNB-75 CNS, in the assay on UO-31 renal and in the assay with SK-MEL-5 melanoma were 36.2 µM, 18.2 µM and 13.5 µM, respectively.

With `C#CC(=O)Nc1cccc2c1cc(C)n2-c1nc2c(c(NCc3ccccc3)n1)CCCC2`, the GI50 in the assay on U251 CNS is 0.178 µM; with 786-0 renal, 0.0189 µM; with MDA-MB-435, 0.463 µM; in the assay with EKVX NSCLC, 1.31 µM; in the assay with CCRF-CEM leukemia, 0.0255 µM; in the assay on SF-539 CNS, 0.172 µM. The GI50 in the assay on SNB-75 CNS was 0.141 µM; with UO-31 renal, 0.0466 µM; in the assay with SK-MEL-5 melanoma it was 0.0985 µM. For the same compound, the TGI with U251 CNS was 0.338 µM; in the assay on 786-0 renal it was 0.0359 µM; with MDA-MB-435, 1.66 µM; in the assay with EKVX NSCLC it was 2.96 µM; with CCRF-CEM leukemia, 0.0605 µM; in the assay with SF-539 CNS, 0.337 µM. The TGI in the assay on SNB-75 CNS was 0.294 µM; in the assay on UO-31 renal, 0.124 µM; in the assay with SK-MEL-5 melanoma, 0.259 µM.

In the case of `N#CC(C#N)=C1CCOc2ccc(F)cc21`, the GI50 with NCI-H23 lung is 14.8 µM; with U251 CNS, 11.2 µM; in the assay on 786-0 renal, 16.2 µM; in the assay on MDA-MB-435, above 100 µM; with SF-539 CNS it was 12.4 µM; in the assay with SNB-75 CNS it was 22.7 µM. In addition, the GI50 is 56.3 µM in the assay on UO-31 renal and 33.2 µM with SK-MEL-5 melanoma. Besides, the TGI in the assay with NCI-H23 lung is 28.7 µM; in the assay on U251 CNS, 23.2 µM; in the assay on 786-0 renal it was 32.8 µM; with MDA-MB-435 it was above 100 µM; in the assay with EKVX NSCLC, 9.3 µM; in the assay on SF-539 CNS, 24.9 µM. Moreover, the TGI is 81.9 µM in the assay with SNB-75 CNS, above 100 µM in the assay on UO-31 renal and above 100 µM with SK-MEL-5 melanoma.

For `O=c1cnnc(N/N=C/c2ccccc2O)[nH]1`, the GI50 in the assay with NCI-H23 lung was 1.21 µM; in the assay on U251 CNS, 2.11 µM; in the assay on 786-0 renal it was 5.1 µM; in the assay on MDA-MB-435, 3.54 µM; in the assay with CCRF-CEM leukemia, 0.396 µM; in the assay with SF-539 CNS, 3.2 µM. In addition, the GI50 in the assay with SNB-75 CNS is 8.03 µM; with UO-31 renal, 1.61 µM; in the assay with SK-MEL-5 melanoma, 1.25 µM. Also, the TGI is above 100 µM with NCI-H23 lung; above 100 µM in the assay on U251 CNS; above 100 µM in the assay on 786-0 renal; above 100 µM in the assay with MDA-MB-435; above 39.9 µM in the assay on CCRF-CEM leukemia; above 100 µM in the assay with SF-539 CNS. In addition, the TGI with SNB-75 CNS is 87.3 µM; in the assay with UO-31 renal it was 13.5 µM; with SK-MEL-5 melanoma, above 39.6 µM.

In the case of `O=C(c1ccccc1Cl)n1oc2ccccc2c1=O`, the TGI is above 100 µM in the assay with U251 CNS; above 100 µM with 786-0 renal; above 100 µM in the assay with MDA-MB-435; above 100 µM in the assay with EKVX NSCLC; 74 µM in the assay with CCRF-CEM leukemia; above 100 µM in the assay with SF-539 CNS. For the same compound, the TGI in the assay with SNB-75 CNS, in the assay with UO-31 renal and with SK-MEL-5 melanoma was above 100 µM in each case.

Turning to `C/C(=N\OCC(O)CNCCSCc1ccccc1)c1ccccc1Cl` (stereo unspecified), the TGI in the assay on NCI-H23 lung was above 100 µM; in the assay on 786-0 renal, 46.3 µM; in the assay with MDA-MB-435 it was 34.4 µM; with EKVX NSCLC, 40.6 µM; in the assay on CCRF-CEM leukemia, 72.9 µM; in the assay on SF-539 CNS, 36.9 µM. In addition, the TGI in the assay on SNB-75 CNS was found to be 39.9 µM; in the assay with UO-31 renal, 32.4 µM; in the assay with SK-MEL-5 melanoma it was 33.4 µM.

`Cc1ccc2cccc(OC(=O)Nc3cccc(C(F)(F)F)c3)c2n1`: the GI50 in the assay with NCI-H23 lung was 2.78 µM; in the assay with U251 CNS, 3.07 µM; in the assay with 786-0 renal, 4.82 µM; with MDA-MB-435 it was 2.91 µM; in the assay with CCRF-CEM leukemia, 2.86 µM; in the assay on SF-539 CNS, 5.42 µM. Moreover, the GI50 with SNB-75 CNS is 2.39 µM; in the assay with UO-31 renal, 2.4 µM; with SK-MEL-5 melanoma it was 7.41 µM. The TGI is 10 µM in the assay on NCI-H23 lung; 12.2 µM in the assay on U251 CNS; 22.2 µM in the assay on 786-0 renal; 10.9 µM with MDA-MB-435; 19.2 µM in the assay on CCRF-CEM leukemia; 18.1 µM in the assay with SF-539 CNS. The TGI in the assay on SNB-75 CNS stood at 11.7 µM; with UO-31 renal, 8.99 µM; with SK-MEL-5 melanoma, 20.1 µM.

On to `CCCCCCn1c(SC)nc(COC(=O)NC)c1COC(=O)NC`, for which the TGI was determined as 41.2 µM in the assay with NCI-H23 lung; 30.3 µM with 786-0 renal; 41.9 µM in the assay with MDA-MB-435; 27.1 µM in the assay on EKVX NSCLC; 32.4 µM with SF-539 CNS; 27.8 µM with SNB-75 CNS. Besides, the TGI stood at 31.3 µM in the assay with UO-31 renal and 30.3 µM in the assay with SK-MEL-5 melanoma.

In the case of `Oc1ccc2c3c1OC1c4[nH]ncc4C[C@H]4[C@@H](C2)N(CC2CC2)CC[C@]314` (stereo partly specified), the TGI in the assay with NCI-H23 lung, in the assay on U251 CNS, with 786-0 renal, with MDA-MB-435, in the assay with EKVX NSCLC and in the assay on CCRF-CEM leukemia was above 100 µM throughout. Further, the TGI in the assay on SNB-75 CNS, in the assay on UO-31 renal and in the assay on SK-MEL-5 melanoma was above 100 µM in each case.

Regarding `C=C1C(=O)O[C@H]2[C@H](OC(C)=O)[C@@H](C)CCCC3(C)OC3CCC3(CO3)[C@H](O)C[C@@H]12` (stereo partly specified), the GI50 in the assay with U251 CNS was 10.4 µM; in the assay with 786-0 renal, 5.15 µM; with MDA-MB-435, 9.24 µM; in the assay on EKVX NSCLC, 12.1 µM; with CCRF-CEM leukemia, 2.44 µM; with SF-539 CNS it was 15.4 µM. In addition, the GI50 was 47 µM in the assay on SNB-75 CNS, 14.3 µM with UO-31 renal and 11.9 µM with SK-MEL-5 melanoma. The TGI with U251 CNS amounted to 22.1 µM; in the assay with 786-0 renal, 21 µM; in the assay on MDA-MB-435, 28.6 µM; in the assay on EKVX NSCLC it was 30.3 µM; with CCRF-CEM leukemia it was 7.27 µM; in the assay on SF-539 CNS, 37.1 µM. Besides, the TGI was above 100 µM in the assay with SNB-75 CNS, 45 µM in the assay with UO-31 renal and 24.9 µM with SK-MEL-5 melanoma.

`COc1cc(N2C(=O)[C@H](c3ccccc3)C2c2ccc(SC)cc2)cc(OC)c1OC` (stereo partly specified): the GI50 in the assay on NCI-H23 lung is 0.0502 µM; with U251 CNS, 0.0375 µM; in the assay on 786-0 renal, 0.0349 µM; with EKVX NSCLC it was 0.0513 µM; in the assay with CCRF-CEM leukemia, 0.0377 µM; in the assay with SF-539 CNS, 0.0255 µM. Further, the GI50 is 0.04 µM with SNB-75 CNS, 0.738 µM with UO-31 renal and 0.0266 µM with SK-MEL-5 melanoma. For the same compound, the TGI is above 100 µM in the assay with NCI-H23 lung; above 100 µM with U251 CNS; 22.9 µM with 786-0 renal; above 100 µM in the assay on EKVX NSCLC; above 100 µM in the assay with CCRF-CEM leukemia; 0.0697 µM in the assay with SF-539 CNS. Besides, the values for the TGI in the assay on SNB-75 CNS, with UO-31 renal and with SK-MEL-5 melanoma were above 100 µM, above 100 µM and 0.0821 µM, respectively.

Consider `Cn1cc(C2=C(c3cn(-c4ccccc4)c4ccccc34)C(=O)NC2=O)c2ccccc21`, for which the GI50 in the assay on NCI-H23 lung was 18.8 µM; with U251 CNS it was 11.5 µM; in the assay on 786-0 renal, above 25 µM; with MDA-MB-435 it was 6.01 µM; in the assay with CCRF-CEM leukemia, 15.2 µM; in the assay on SF-539 CNS, above 25 µM. Also, the GI50 is 5.76 µM with SNB-75 CNS, 5.35 µM with UO-31 renal and 10.8 µM in the assay with SK-MEL-5 melanoma. Besides, the TGI was above 25 µM in the assay with NCI-H23 lung; above 25 µM in the assay with U251 CNS; above 25 µM in the assay on 786-0 renal; above 20.5 µM in the assay on MDA-MB-435; above 25 µM with CCRF-CEM leukemia; above 25 µM with SF-539 CNS. The TGI in the assay on SNB-75 CNS, with UO-31 renal and with SK-MEL-5 melanoma was above 25 µM in each case.

Regarding `COc1cccc(-c2cc(=O)c3cc(N4CCOCC4)ccc3[nH]2)c1`, the GI50 with NCI-H23 lung is 0.55 µM; with 786-0 renal, 0.0602 µM; in the assay with EKVX NSCLC, 0.0608 µM; in the assay on CCRF-CEM leukemia, 0.0218 µM; in the assay on SF-539 CNS, 0.0193 µM; in the assay with UO-31 renal, 0.0713 µM. The GI50 in the assay with SK-MEL-5 melanoma is 0.0319 µM. For the same compound, the TGI with 786-0 renal was above 100 µM; with MDA-MB-435 it was 0.0256 µM; in the assay with EKVX NSCLC, above 100 µM; in the assay with CCRF-CEM leukemia, 0.111 µM; in the assay on SF-539 CNS, 0.0505 µM and 0.42 µM; in the assay with UO-31 renal, above 100 µM.

With `COc1cc(CC2c3cc(OC)c(OC)cc3CCN2C)ccc1O` (stereo unspecified), the TGI with NCI-H23 lung, in the assay on U251 CNS, in the assay with 786-0 renal, in the assay on EKVX NSCLC, in the assay on CCRF-CEM leukemia and in the assay on SF-539 CNS was above 100 µM in each case. The TGI with SNB-75 CNS, in the assay on UO-31 renal and in the assay with SK-MEL-5 melanoma was above 100 µM in each case.
